Results from patent US20220033490A1 (priority 2018, published 2022).

Target: T1, α6*nAChR (Homo sapiens, UniProt Q15825)
T1 construct: endogenous in cells; host or cells: human inducible Tregs (from naïve CD4+ T cells of PBMCs) co-cultured with autologous CD8+ T cells
Type: cell-based

T1 sequence (Q15825 26-494): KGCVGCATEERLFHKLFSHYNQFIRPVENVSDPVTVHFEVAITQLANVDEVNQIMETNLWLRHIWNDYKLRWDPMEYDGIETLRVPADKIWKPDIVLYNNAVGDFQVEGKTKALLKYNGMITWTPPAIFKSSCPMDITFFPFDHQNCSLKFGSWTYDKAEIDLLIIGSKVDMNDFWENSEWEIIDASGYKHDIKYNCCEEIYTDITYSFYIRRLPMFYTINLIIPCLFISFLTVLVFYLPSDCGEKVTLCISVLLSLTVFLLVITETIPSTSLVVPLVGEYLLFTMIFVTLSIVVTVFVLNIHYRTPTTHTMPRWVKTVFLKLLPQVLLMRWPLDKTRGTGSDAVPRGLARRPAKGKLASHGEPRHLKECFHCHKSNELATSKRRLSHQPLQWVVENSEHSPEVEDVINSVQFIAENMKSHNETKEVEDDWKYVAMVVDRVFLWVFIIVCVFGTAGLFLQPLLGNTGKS

Row | Molecule | IFNγ+CD8+ T-cells in co-culture | IFNγ+CD8+ T cells in co-culture
1 | CN1CCCC1c1cccnc1 (centres unmarked) [nicotine] | trend of decreasing IFNγ+CD8+ T-cells | 
2 | alpha-conotoxin PIA [[…]-conotoxin PIA] |  | trend of increasing IFNγ+CD8+ T cells
